Measurements published in ChEMBL document CHEMBL3046266, “Synthesis of curcumin and ethylcurcumin bioconjugates as potential antitumor agents” (Med Chem Res, 2012).
Calls of active or inactive are those of the source. No cut-off for these calls is given here.

Legend:
KB [1] = assay: Cytotoxicity against Homo sapiens (human) KB cells by neutral red staining; assay type: functional, cell-based
[2] = biological target: T1, DNA topoisomerase 2-alpha (Homo sapiens, UniProt P11388); assay: Inhibition of Homo sapiens (human) topoisomerase 2 assessed as decatenation of KDNA by agarose gel electrophoresis
SK-MEL [3] = assay: Cytotoxicity against Homo sapiens (human) SK-MEL cells by neutral red staining; assay type: functional, cell-based
BT-549 [4] = assay: Cytotoxicity against Homo sapiens (human) BT549 cells by neutral red staining; assay type: functional, cell-based
SK-OV-3 [5] = assay: Cytotoxicity against Homo sapiens (human) SKOV3 cells by neutral red staining; assay type: functional, cell-based
Vero [6] = assay: Cytotoxicity against Chlorocebus aethiops (African green monkey) Vero cells by neutral red staining; assay type: cell-based; conditions: chlorocebus sabaeus
LLC-PK1 [7] = assay: Cytotoxicity against Sus scrofa (pig) LLC-PK1 cells by neutral red staining; assay type: cell-based
[8] = biological target: T2, DNA topoisomerase 1 (Homo sapiens) (UniProt P11387); assay: Inhibition of Homo sapiens (human) topoisomerase 1 assessed as production of nicked DNA up to 25 uM by agarose gel electrophoresis
T2 sequence (whole entry): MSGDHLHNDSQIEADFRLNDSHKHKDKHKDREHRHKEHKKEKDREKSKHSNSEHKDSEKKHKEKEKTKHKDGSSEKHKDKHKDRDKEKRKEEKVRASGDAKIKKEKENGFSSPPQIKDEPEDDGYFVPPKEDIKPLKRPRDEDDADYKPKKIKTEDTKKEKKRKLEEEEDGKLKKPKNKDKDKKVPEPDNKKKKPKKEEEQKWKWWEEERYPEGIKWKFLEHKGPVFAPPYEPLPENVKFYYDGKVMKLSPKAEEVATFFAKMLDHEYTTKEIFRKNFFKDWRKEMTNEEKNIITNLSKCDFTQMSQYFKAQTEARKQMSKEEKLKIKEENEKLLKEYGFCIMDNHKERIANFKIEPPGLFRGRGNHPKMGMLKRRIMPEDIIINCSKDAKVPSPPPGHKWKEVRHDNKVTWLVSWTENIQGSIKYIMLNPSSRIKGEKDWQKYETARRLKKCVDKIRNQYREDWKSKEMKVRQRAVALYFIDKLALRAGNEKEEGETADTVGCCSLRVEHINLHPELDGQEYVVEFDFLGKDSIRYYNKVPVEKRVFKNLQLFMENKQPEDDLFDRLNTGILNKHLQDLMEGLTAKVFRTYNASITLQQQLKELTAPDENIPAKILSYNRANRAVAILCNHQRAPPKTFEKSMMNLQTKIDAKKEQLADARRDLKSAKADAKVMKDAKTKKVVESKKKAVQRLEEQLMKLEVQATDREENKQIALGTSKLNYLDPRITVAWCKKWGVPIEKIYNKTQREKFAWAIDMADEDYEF

[9] = biological target: T2, DNA topoisomerase 1 (Homo sapiens); assay: Inhibition of Homo sapiens (human) topoisomerase 1 assessed as relaxation of supercoiled DNA up to 25 uM by agarose gel electrophoresis
LLC-PK1 [10] = assay: Cytotoxicity against Sus scrofa (pig) LLC-PK1 cells up to 25 uM by neutral red staining; assay type: cell-based
Vero [11] = assay: Cytotoxicity against Chlorocebus aethiops (African green monkey) Vero cells up to 25 uM by neutral red staining; assay type: cell-based; conditions: chlorocebus sabaeus
KB [12] = assay: Cytotoxicity against Homo sapiens (human) KB cells up to 25 uM by neutral red staining; assay type: functional, cell-based
SK-OV-3 [13] = assay: Cytotoxicity against Homo sapiens (human) SKOV3 cells up to 25 uM by neutral red staining; assay type: functional, cell-based
BT-549 [14] = assay: Cytotoxicity against Homo sapiens (human) BT549 cells up to 25 uM by neutral red staining; assay type: functional, cell-based
SK-MEL [15] = assay: Cytotoxicity against Homo sapiens (human) SK-MEL cells up to 25 uM by neutral red staining; assay type: functional, cell-based
[16] = biological target: T1, DNA topoisomerase 2-alpha; assay: Inhibition of Homo sapiens (human) topoisomerase 2 assessed as decatenation of KDNA up to 25 uM by agarose gel electrophoresis

T1 sequence (P11388 whole entry): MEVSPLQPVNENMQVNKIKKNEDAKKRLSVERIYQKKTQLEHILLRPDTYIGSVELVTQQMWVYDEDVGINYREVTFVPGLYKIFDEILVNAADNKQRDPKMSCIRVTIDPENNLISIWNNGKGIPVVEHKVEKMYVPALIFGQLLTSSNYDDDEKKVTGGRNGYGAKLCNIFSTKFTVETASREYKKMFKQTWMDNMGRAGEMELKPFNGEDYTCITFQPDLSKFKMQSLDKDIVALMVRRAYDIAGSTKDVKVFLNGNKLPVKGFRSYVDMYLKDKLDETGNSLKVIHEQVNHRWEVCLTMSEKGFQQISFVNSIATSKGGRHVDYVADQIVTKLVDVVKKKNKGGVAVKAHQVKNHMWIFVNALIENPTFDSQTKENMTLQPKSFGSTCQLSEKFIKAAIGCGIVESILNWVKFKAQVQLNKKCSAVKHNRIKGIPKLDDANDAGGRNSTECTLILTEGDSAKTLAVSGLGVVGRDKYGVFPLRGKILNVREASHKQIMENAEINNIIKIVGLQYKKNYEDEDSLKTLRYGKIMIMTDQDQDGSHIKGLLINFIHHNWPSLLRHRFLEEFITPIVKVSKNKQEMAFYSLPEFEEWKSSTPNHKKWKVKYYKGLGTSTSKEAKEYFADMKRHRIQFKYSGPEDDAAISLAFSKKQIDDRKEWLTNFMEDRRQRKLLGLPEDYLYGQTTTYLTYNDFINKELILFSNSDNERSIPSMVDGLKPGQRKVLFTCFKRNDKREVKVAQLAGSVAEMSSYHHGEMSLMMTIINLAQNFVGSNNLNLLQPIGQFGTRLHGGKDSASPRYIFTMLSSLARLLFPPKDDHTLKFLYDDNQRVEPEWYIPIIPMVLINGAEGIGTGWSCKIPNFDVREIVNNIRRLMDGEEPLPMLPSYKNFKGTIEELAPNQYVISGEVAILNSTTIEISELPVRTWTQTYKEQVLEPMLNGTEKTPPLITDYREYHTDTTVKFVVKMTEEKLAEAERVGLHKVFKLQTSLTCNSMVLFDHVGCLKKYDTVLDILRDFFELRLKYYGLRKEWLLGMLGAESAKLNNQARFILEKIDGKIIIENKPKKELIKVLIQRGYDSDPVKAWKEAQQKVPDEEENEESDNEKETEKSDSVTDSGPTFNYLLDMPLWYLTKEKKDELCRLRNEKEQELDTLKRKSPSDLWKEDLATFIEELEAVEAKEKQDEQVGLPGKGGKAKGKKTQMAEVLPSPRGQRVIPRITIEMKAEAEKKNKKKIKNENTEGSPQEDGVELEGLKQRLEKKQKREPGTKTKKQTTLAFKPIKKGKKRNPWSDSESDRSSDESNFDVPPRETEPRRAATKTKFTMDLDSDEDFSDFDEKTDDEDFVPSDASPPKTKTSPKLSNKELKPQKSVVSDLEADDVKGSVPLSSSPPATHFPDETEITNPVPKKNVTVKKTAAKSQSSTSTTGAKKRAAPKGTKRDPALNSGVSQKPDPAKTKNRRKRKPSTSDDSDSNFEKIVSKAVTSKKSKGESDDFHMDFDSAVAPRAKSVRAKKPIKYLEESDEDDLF

SMILES | IC50 [2] [µM] | inhibition [8] | inhibition [9] | inhibition [16] | IC50 (KB [1]) [µM] | IC50 (SK-MEL [3]) [µM] | IC50 (BT-549 [4]) [µM] | IC50 (SK-OV-3 [5]) [µM] | IC50 (Vero [6]) [µM] | IC50 (LLC-PK1 [7]) [µM] | Activity (LLC-PK1 [10]) | Activity (Vero [11]) | Activity (KB [12]) | Activity (SK-OV-3 [13]) | Activity (BT-549 [14]) | Activity (SK-MEL [15])
COc1cc(/C=C/C(=O)CC(=O)/C=C/c2ccc(OC(=O)CNc3ccc(S(N)(=O)=O)cc3)c(OC)c2)ccc1OC(=O)CNc1ccc(S(N)(=O)=O)cc1 | 3 | inactive | inactive |  | 14 | 18.8 | 10.5 | 22.5 | 11 | 15.8 |  |  |  |  |  | 
COc1cc(/C=C/C(=O)CC(=O)/C=C/c2ccc(OC(=O)CNCCN(C)C)c(OC)c2)ccc1OC(=O)CNCCN(C)C | 16 | inactive | inactive |  |  | 15 | 20 | 22.5 |  |  | Non-toxic | Non-toxic | inactive |  |  | 
CCN(CC)CCNCC(=O)Oc1ccc(/C=C/C(=O)CC(=O)/C=C/c2ccc(OC(=O)CNCCN(CC)CC)c(OC)c2)cc1OC | 3 | inactive | inactive |  | 24 | 8.5 | 16.3 | 15.5 | 19.5 |  | Non-toxic |  |  |  |  | 
COc1cc(/C=C/C(=O)CC(=O)/C=C/c2ccc(OC(=O)CCNCCCl)c(OC)c2)ccc1OC(=O)CCNCCCl | 2.9 | inactive | inactive |  | 11.5 | 15 | 11 | 23.8 | 12.5 | 16.8 |  |  |  |  |  | 
COc1cc(/C=C/C(=O)CC(=O)/C=C/c2ccc(OC(=O)CN(CCCl)CCCl)c(OC)c2)ccc1OC(=O)CN(CCCl)CCCl | 5 | inactive | inactive |  | 19.5 | 7 | 6.75 |  | > 25 | 20 |  |  |  | inactive |  | 
COc1cccc2c1C(=O)c1c(O)c3c(c(O)c1C2=O)C[C@@](O)(C(=O)CO)C[C@@H]3O[C@H]1C[C@H](N)[C@H](O)[C@H](C)O1 [DOXORUBICIN] |  |  |  |  | < 0.55 | 0.55 | < 0.55 | 0.8 | > 5 | 0.75 |  |  |  |  |  | 
CCOc1cc(/C=C/C(=O)CC(=O)/C=C/c2ccc(OC(=O)CCNCCN(C)C)c(OCC)c2)ccc1OC(=O)CCNCCN(C)C |  | inactive | inactive | inactive |  |  |  |  |  |  | Non-toxic | Non-toxic | inactive | inactive | inactive | inactive
CCOc1cc(/C=C/C(=O)CC(=O)/C=C/c2ccc(OC(=O)CNCCCl)c(OCC)c2)ccc1OC(=O)CNCCCl | 4.1 | inactive | inactive |  | 12.5 | 13.3 | 9 |  | 11 | 6.8 |  |  |  | inactive |  | 
CCOc1cc(/C=C/C(=O)CC(=O)/C=C/c2ccc(OC(=O)CN(CCCl)CCCl)c(OCC)c2)ccc1OC(=O)CN(CCCl)CCCl | 3.4 | inactive | inactive |  | 21.5 | 14.5 | 11 | 13.5 | 15 | 13.8 |  |  |  |  |  | 

Continued, in another order:

IC50 [2] [µM] | inhibition [8] | inhibition [9] | inhibition [16] | SMILES | IC50 (KB [1]) [µM] | IC50 (SK-MEL [3]) [µM] | IC50 (BT-549 [4]) [µM] | IC50 (SK-OV-3 [5]) [µM] | IC50 (Vero [6]) [µM] | IC50 (LLC-PK1 [7]) [µM] | Activity (LLC-PK1 [10]) | Activity (Vero [11]) | Activity (KB [12]) | Activity (SK-OV-3 [13]) | Activity (BT-549 [14]) | Activity (SK-MEL [15])
15 | inactive | inactive |  | COc1cc(/C=C/C(=O)CC(=O)/C=C/c2ccc(OC(=O)CNc3nnc(C)s3)c(OC)c2)ccc1OC(=O)CNc1nnc(C)s1 | 22.5 | 7.5 | 8.75 |  | 23 | 22.5 |  |  |  | inactive |  | 
2.7 | inactive | inactive |  | CCOc1cc(/C=C/C(=O)CC(=O)/C=C/c2ccc(OC(=O)CNc3nnc(C)s3)c(OCC)c2)ccc1OC(=O)CNc1nnc(C)s1 | 11.5 | 12.5 | 12 | 15.8 | 11.5 | 13 |  |  |  |  |  | 
10 | inactive | inactive |  | CCOc1cc(/C=C/C(=O)CC(=O)/C=C/c2ccc(OC(=O)CNCCN(CC)CC)c(OCC)c2)ccc1OC(=O)CNCCN(CC)CC | 11.5 | 11.5 | 10 | 14.8 | 5 | 5.8 |  |  |  |  |  | 
3 | inactive | inactive |  | COc1cc(/C=C/C(=O)CC(=O)/C=C/c2ccc(OC(=O)CCNc3nnc(C)s3)c(OC)c2)ccc1OC(=O)CCNc1nnc(C)s1 | 16.3 | 7.5 | 4.25 |  | 15 | 15.5 |  |  |  | inactive |  | 
12 | inactive | inactive |  | CCOc1cc(/C=C/C(=O)CC(=O)/C=C/c2ccc(OC(=O)CNc3nc4ccc(OC)cc4s3)c(OCC)c2)ccc1OC(=O)CNc1nc2ccc(OC)cc2s1 |  | 4.75 |  | 2.8 |  |  | Non-toxic | Non-toxic | inactive |  | inactive | 
